Legend:
islet cells = conditions: direct mechanism on islet cells; cited from earlier work
[1] = test system: β-cells of RIP-GFP islet grafts; conditions: mouse, in vivo
[2] = Blood glucose after intravenous alloxan; conditions: alloxan 75 mg/kg i.v., after 24 h, n=6
[3] = Blood glucose after intravenous glibenclamide; assay type: in vivo, mouse; conditions: glibenclamide intravenously (1 mg/kg, tail vein); data not shown
islet cells (β-cells) = assay: In vivo recording of [Ca2+]i changes in islets engrafted in the anterior chamber of the eye (Fluo-4/Fura-Red ratio); set-up: species or system mouse; conditions: glibenclamide 1 mg/kg i.v.; remained high throughout the recording

SMILES: FC(F)OC(Cl)C(F)(F)F (stereo not drawn) [Isoflurane]
- glucose stimulated insulin release (islet cells): inhibit

SMILES: O=C1NC(=O)C(=O)C(=O)N1 [alloxan]
- GFP fluorescence of islet grafts [1]: substantial loss of GFP fluorescence
- annexin V-APC labelling of islet grafts [1]: strong labelling
- blood glucose concentration [2]: 25.0 ± 1.3 mmol/L

SMILES: COc1ccc(Cl)cc1C(=O)NCCc1ccc(S(=O)(=O)NC(=O)NC2CCCCC2)cc1 [glibenclamide]
- blood glucose levels [3]: decreased blood glucose levels
- [Ca2+]i in islet cells (Fluo-4/Fura-Red fluorescence ratio) (islet cells (β-cells)): prominent rises

Source: patent US10493108B2, “Non-invasive in vivo imaging and methods for treating diabetes” (Biocrine AB, priority 2007, dated 2019)
